Laboratory results taken from ChEMBL document CHEMBL1147584, “Antimalarial activity of phenazines from lapachol, beta-lapachone and its derivatives against Plasmodium falciparum in vitro and Plasmodium berghei in vivo” (Bioorg Med Chem Lett, 2004).

Experiments:
[1] = system: Plasmodium falciparum; test: In vitro antimalarial activity for Plasmodium falciparum HB3; type: functional, organism-based
[2] = system: Plasmodium berghei; test: Inhibition of Plasmodium berghei infection in mice (Mus musculus) at 200 mg/kg subcutaneous dose (expt 2); type: functional; conditions: sc
[3] = system: Plasmodium falciparum; test: In vitro antimalarial activity for Plasmodium falciparum D6; type: functional, organism-based
[4] = system: Plasmodium berghei; test: Inhibition of Plasmodium berghei infection in mice (Mus musculus) at 100 mg/kg subcutaneous dose (expt 1); type: functional; conditions: sc
[5] = system: Plasmodium berghei; test: Inhibition of Plasmodium berghei infection in mice (Mus musculus) at 200 mg/kg peroral dose (expt 2); type: functional; conditions: route oral
[6] = system: Plasmodium falciparum; test: In vitro antimalarial activity for Plasmodium falciparum W2; type: functional, organism-based
[7] = system: Plasmodium falciparum; test: In vitro antimalarial activity for Plasmodium falciparum BHz26/86; type: functional, organism-based
[8] = system: Plasmodium berghei; test: Inhibition of Plasmodium berghei infection in mice (Mus musculus) at 200 mg/kg subcutaneous dose (experiment 1); type: functional; conditions: sc
[9] = system: Plasmodium berghei; test: Inhibition of Plasmodium berghei infection in mice (Mus musculus) at 200 mg/kg peroral dose (expt 1); type: functional; conditions: route oral
[10] = system: Plasmodium berghei; test: Inhibition of Plasmodium berghei infection in mice (Mus musculus) at 100 mg/kg subcutaneous dose (experiment 2); type: functional; conditions: sc
[11] = system: Plasmodium berghei; test: Inhibition of Plasmodium berghei infection in mice (Mus musculus) at 200 mg/kg subcutaneous dose (expt 3); type: functional; conditions: sc
[12] = system: Plasmodium berghei; test: Inhibition of Plasmodium berghei infection in mice (Mus musculus) at 100 mg/kg subcutaneous dose (expt 3); type: functional; conditions: sc
[13] = system: Plasmodium berghei; test: Inhibition of Plasmodium berghei infection in mice (Mus musculus) at 15 mg/kg subcutaneous dose (experiment 2); type: functional; conditions: sc
[14] = system: Plasmodium berghei; test: Inhibition of Plasmodium berghei in mice (Mus musculus) after 15 mg/kg subcutaneous dose (experiment 1); type: functional; conditions: sc
[15] = system: Plasmodium berghei; test: Inhibition of Plasmodium berghei infection in mice (Mus musculus) at 15 mg/kg subcutaneous dose (experiment 3); type: functional; conditions: sc
[16] = system: Plasmodium berghei; test: Inhibition of Plasmodium berghei infection in mice (Mus musculus) at 25 mg/kg peroral dose (expt 2); type: functional; conditions: route oral
[17] = system: Plasmodium berghei; test: Inhibition of Plasmodium berghei infection in mice (Mus musculus) at 25 mg/kg peroral dose (experiment 1); type: functional; conditions: route oral

Row | SMILES | IC50 [1] | IC50 [3] | IC50 [6] | IC50 [7] | inhibition in vivo at 200 mg/kg [5] | inhibition in vivo at 200 mg/kg [9] | further results
1 | c1ccc2c(c1)ccc1nc3ccccc3nc12 [BENZO[A]PHENAZINE] | > 20 µM | > 20 µM | > 20 µM | > 20 µM |  |  | 
2 | CC(C)=CCC1=C(O)C(=O)c2ccccc2C1=O [LAPACHOL] |  |  |  |  | 0% | 0% | 
3 | CCN(CC)CCCC(C)Nc1ccnc2cc(Cl)ccc12 (configuration not stated) [CHLOROQUINE] |  |  |  |  |  |  | inhibition in vivo at 15 mg/kg [13]: 99%; inhibition in vivo at 15 mg/kg [14]: 99%; inhibition in vivo at 15 mg/kg [15]: 99%; inhibition in vivo at 25 mg/kg [16]: 98%; inhibition in vivo at 25 mg/kg [17]: 99%
4 | CC1(C)CCC2=C(O1)c1ccccc1C(=O)C2=O [LAPACHONE] |  |  |  |  | 34% | 28% | 

Second part, led by results:

Row | IC50 [1] | IC50 [3] | IC50 [6] | IC50 [7] | SMILES | inhibition in vivo at 200 mg/kg [5] | inhibition in vivo at 200 mg/kg [9] | further results
5 | 6.14 µM | 2.43 µM | 1.67 µM | 1.75 µM | CC1(C)Oc2c(c3nc4ccccc4nc3c3ccccc23)CC1S(=O)(=O)O (configuration not stated) | 36% | 33% | inhibition in vivo at 200 mg/kg [2]: 40%; inhibition in vivo at 100 mg/kg [4]: 34%; inhibition in vivo at 200 mg/kg [8]: 50%; inhibition in vivo at 100 mg/kg [10]: 31%; inhibition in vivo at 200 mg/kg [11]: 98%
6 | > 20 µM | > 20 µM | > 20 µM | > 20 µM | C=CCC1Cc2c(c3ccccc3c3nc4ccccc4nc23)OC1(C)C (configuration not stated) |  |  | 
7 | > 20 µM | > 20 µM | > 20 µM | > 20 µM | CC1(C)CCc2c(c3ccccc3c3nc4ccccc4nc23)O1 |  |  | 
8 | 6.65 µM | 4.26 µM | 3.22 µM | 2.3 µM | CC1(C)Oc2c(c3nc4ccccc4nc3c3ccccc23)CC1I (configuration not stated) |  |  | 
9 | 9.44 µM | 3.72 µM | 3.54 µM | 3.14 µM | CC(C)=CCc1c(O)c2ccccc2c2nc3ccccc3nc12 |  |  | 
10 | 8.75 µM | 4.07 µM | 3.04 µM | 1.9 µM | CC1(C)Oc2c(c3nc4ccccc4nc3c3ccccc23)CC1Br (configuration not stated) | 10% | 11% | inhibition in vivo at 200 mg/kg [2]: 0%; inhibition in vivo at 100 mg/kg [12]: 0%; inhibition in vivo at 100 mg/kg [4]: 0%; inhibition in vivo at 200 mg/kg [8]: 0%; inhibition in vivo at 100 mg/kg [10]: 0%; inhibition in vivo at 200 mg/kg [11]: 0%
